The values that follow come from patent publication US8901313B2, “6,5-heterocyclic propargylic alcohol compounds and uses therefor” (Genentech, Inc., priority 2011, dated 2014).

The structures appear in SMILES notation.

T1 sequence (Q99558 whole entry): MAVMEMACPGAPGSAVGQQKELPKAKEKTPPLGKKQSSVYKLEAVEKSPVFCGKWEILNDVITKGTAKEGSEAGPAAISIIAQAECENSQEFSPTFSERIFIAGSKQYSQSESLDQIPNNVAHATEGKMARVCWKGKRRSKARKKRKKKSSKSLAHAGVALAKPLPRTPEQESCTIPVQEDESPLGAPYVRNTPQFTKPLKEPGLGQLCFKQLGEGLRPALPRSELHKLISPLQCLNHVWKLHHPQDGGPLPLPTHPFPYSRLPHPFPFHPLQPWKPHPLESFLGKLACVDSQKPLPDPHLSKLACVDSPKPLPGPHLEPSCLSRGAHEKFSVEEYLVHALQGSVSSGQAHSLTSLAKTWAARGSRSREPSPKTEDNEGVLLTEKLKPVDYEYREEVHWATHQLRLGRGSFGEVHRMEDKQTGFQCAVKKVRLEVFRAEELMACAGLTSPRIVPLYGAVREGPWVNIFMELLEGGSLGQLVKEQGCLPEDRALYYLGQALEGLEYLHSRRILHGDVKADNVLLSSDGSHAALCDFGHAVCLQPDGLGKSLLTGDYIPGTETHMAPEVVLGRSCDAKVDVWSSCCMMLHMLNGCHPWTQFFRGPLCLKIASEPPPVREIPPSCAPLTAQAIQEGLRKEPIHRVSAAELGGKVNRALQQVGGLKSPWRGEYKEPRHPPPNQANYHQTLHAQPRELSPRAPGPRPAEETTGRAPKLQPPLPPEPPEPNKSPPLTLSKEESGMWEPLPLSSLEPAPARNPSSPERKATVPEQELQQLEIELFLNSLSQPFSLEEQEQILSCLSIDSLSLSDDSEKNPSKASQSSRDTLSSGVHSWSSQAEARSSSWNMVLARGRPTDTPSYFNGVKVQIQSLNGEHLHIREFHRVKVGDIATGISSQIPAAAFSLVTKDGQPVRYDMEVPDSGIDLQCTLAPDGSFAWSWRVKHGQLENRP

The test addresses T1, nuclear factor-kappa B (NF-kB)-inducing kinase (NIK) (Homo sapiens, UniProt Q99558).
T1 construct: made in house; host or cells: baculovirus-infected insect cells
Briefly: NIK Enzyme Inhibition Assay (Transcreener ADP assay). The class given is biochemical. To be noted: purified NIK 0.2-1 nM, 10 uM ATP, fluorescence polarization, Morrison's quadratic equation; read-out: inhibitory value (Ki) for NIK.
In the case of `CC(O)(C#Cc1ccc2nc(OCCO)n(-c3ccnc(N)n3)c2c1)c1ccc(Cl)cn1` (centres unmarked) [Example T1.1-123, 4-[3-(2-aminopyrimidin-4-yl)-2-(2-hydroxyethoxy)benzimidazol-5-yl]-2-(5-chloro-2-pyridyl)but-3-yn-2-ol], the Ki is not below 5000 nM.
`CC1CN(C(=O)c2nn(-c3ccnc(N)n3)c3cc(C#CC(C)(O)c4ncccn4)ccc23)CC(C)O1` (centres unmarked) [Example T1.1-74, [1-(2-aminopyrimidin-4-yl)-6-(3-hydroxy-3-pyrimidin-2-yl-but-1-ynyl)indazol-3-yl]-(2,6-dimethylmorpholin-4-yl) methanone]: the Ki was 13 nM.
For `Cc1cc(C(C)(O)C#Cc2ccc3c(C(O)C(C)C)nn(-c4ccnc(N)n4)c3c2)no1` (centres unmarked) [Example T1.1-3, 4-[1-(2-aminopyrimidin-4-yl)-3-(1-hydroxy-2-methyl-pro-pyl)indazol-6-yl]-2-(5-methyl-isoxazol-3-yl)but-3-yn-2-ol] the value was 0.2 nM; for `Cn1cnc(C(C)(O)C#Cc2ccc3c(C(=O)N4CCOCC4)nn(-c4ccnc(N)n4)c3c2)n1` (centres unmarked) [Example T1.1-83, [1-(2-aminopyrimidin-4-yl)-6-[3-hydroxy-3-(1-methyl-1,2,4-triazol-3-yl)but-1-ynyl]indazol-3-yl]-morpholino-methanone], 25 nM; for `CC(O)(C#Cc1ccc2c(C(=O)N3CCOCC3)nn(-c3ccnc(N)n3)c2c1)c1ccncn1` (centres unmarked) [Example T1.1-121, [1-(2-aminopyrimidin-4-yl)-6-(3-hydroxy-3-pyrimidin-4-yl-but-1-ynyl)indazol-3-yl]-morpholino-methanone], not below 5000 nM.
Consider `CN(C)C(=O)c1nn(-c2ccnc(N)n2)c2cc(C#C[C@@](C)(O)c3nccs3)ccc12` [Example T1-46, (R)-1-(2-aminopyrimidin-4-yl)-6-(3-hydroxy-3-(thiazol-2-yl)but-1-ynyl)-N,N-dimethyl-1H-indazole-3-carboxamide], for which the Ki was determined as 0.16 nM.
With `CC(O)(C#Cc1ccc2c(C(=O)N3CC(O)C3)nn(-c3ccnc(N)n3)c2c1)c1ncccn1` (centres unmarked) [Example T1.1-146, [1-(2-aminopyrimidin-4-yl)-6-(3-hydroxy-3-pyrimidin-2-yl-but-1-ynyl)indazol-3-yl]-(3-hydroxyazetidin-1-yl)methanone], the Ki worked out at 3400 nM.
`CC(O)(C#Cc1ccc2nc(OC3COC3)n(-c3ccnc(N)n3)c2c1)c1ncccn1` (centres unmarked) [Example T1.1-72, 4-[3-(2-aminopyrimidin-4-yl)-2-(oxetan-3-yloxy)benzimidazol-5-yl]-2-pyrimidin-2-yl-but-3-yn-2-ol]: the Ki amounted to 12 nM.
As for `Cc1nc2ccc(C#CC3(O)CCCOC3)cc2n1-c1ncnc(N)n1` (centres unmarked) [Example T1.1-114, 3-[2-[3-(4-amino-1,3,5-triazin-2-yl)-2-methyl-benzimidazol-5-yl]ethynyl] tetrahydropyran-3-ol], the inhibitory constant (Ki) is 2600 nM.
As to `Cc1nc(C(C)(O)C#Cc2ccc3c(C(=O)N(C)C)nn(-c4ccnc(N)n4)c3c2)no1` (centres unmarked) [Example T1.1-30, 1-(2-aminopyrimidin-4-yl)-6-[3-hydroxy-3-(5-methyl-1,2,4-oxadiazol-3-yl)but-1-ynyl]-N,N-dimethyl-indazole-3-carboxamide], the Ki was 2 nM.
For `CNC(=O)c1nn(-c2ccnc(N)n2)c2cc(C#C[C@@](C)(O)c3cc(C)on3)ccc12` [Example T1.1-15, 1-(2-aminopyrimidin-4-yl)-6-[(3R)-3-hydroxy-3-(5-methylisoxazol-3-yl)but-1-ynyl]-N-methyl-indazole-3-carboxamide] the value was 1 nM; for `Cc1nc2ccc(C#CC(C)(O)CC3CC3)cc2n1-c1ncnc(N)n1` (centres unmarked) [Example T1.1-99, 4-[3-(4-amino-1,3,5-triazin-2-yl)-2-methyl-benzimidazol-5-yl]-1-cyclopropyl-2-methyl-but-3-yn-2-ol], 129 nM; for `Cc1nc([C@](C)(O)C#Cc2ccc3nc(OC4COC4)n(-c4ccnc(N)n4)c3c2)no1` [Example T1.1-47, (2R)-4-[3-(2-aminopyrimidin-4-yl)-2-(oxetan-3-yloxy)benzimidazol-5-yl]-2-(5-methyl-1,2,4-oxadiazol-3-yl)but-3-yn-2-ol], 3 nM.
Take `Cc1nc2ccc(C#CC3(O)CC(C#N)C3)cc2n1-c1ncnc(N)n1` (centres unmarked) [Example T1.1-113, 3-[2-[3-(4-amino-1,3,5-triazin-2-yl)-2-methyl-benzimidazol-5-yl]ethynyl]-3-hydroxy-cyclobutanecarbonitrile]: the Ki worked out at 2400 nM.
For `CCOc1nc2ccc(C#CC(C)(O)c3cc(C)on3)cc2n1-c1ccnc(N)n1` (centres unmarked) [Example T1-70, 4-(1-(2-aminopyrimidin-4-yl)-2-ethoxy-1H-benzo[d]imidazol-6-yl)-2-(5-methyl-isoxazol-3-yl)but-3-yn-2-ol], the Ki was 0.5 nM.
On to `COCCOc1nc2ccc(C#CC(C)(O)c3ncccn3)cc2n1-c1ccnc(N)n1` (centres unmarked) [Example T1.1-58, 4-[3-(2-aminopyrimidin-4-yl)-2-(2-methoxyethoxy)benzimidazol-5-yl]-2-pyrimidin-2-yl-but-3-yn-2-ol], for which the Ki came out at 5 nM.
As for `Cc1nn(-c2ccnc(N)n2)c2cc(C#C[C@](C)(O)c3nccs3)ccc12` [Example T1-49, (S)-4-(1-(2-aminopyrimidin-4-yl)-3-methyl-1H-indazol-6-yl)-2-(thiazol-2-yl)but-3-yn-2-ol], the Ki worked out at 847 nM.
The figure for `Cc1nc2ccc(C#CC(C)(O)c3nc(CO)cs3)cc2n1-c1ncnc(N)n1` (centres unmarked) [Example T1.1-111, 4-[3-(4-amino-1,3,5-triazin-2-yl)-2-methyl-benzimidazol-5-yl]-2-[4-(hydroxy-methyl)thiazol-2-yl]but-3-yn-2-ol] is 1700 nM; for `CNc1nccc(-n2ncc3ccc(C#C[C@@](C)(O)c4cc(C)on4)cc32)n1` [Example T1.1-101, (2R)-4-[1-[2-(methylamino)pyrimidin-4-yl]indazol-6-yl]-2-(5-methylisoxazol-3-yl)but-3-yn-2-ol] it is 150 nM.
The figure for `Cc1nc([C@](C)(O)C#Cc2ccc3c(C(=O)N4CC(O)C4)nn(-c4ccnc(N)n4)c3c2)no1` [Example T1.1-34, [1-(2-aminopyrimidin-4-yl)-6-[(3R)-3-hydroxy-3-(5-methyl-1,2,4-oxadiazol-3-yl)but-1-ynyl]indazol-3-yl]-(3-hydroxyazetidin-1-yl)methanone] is 2 nM; for `Cc1nn(-c2ccnc(N)n2)c2cc(C#CC(C)(O)C(=O)N(C)C)ccc12` (centres unmarked) [Example T1.1-103, 4-[1-(2-aminopyrimidin-4-yl)-3-methyl-indazol-6-yl]-2-hydroxy-N,N,2-trimethyl-but-3-ynamide] it is 315 nM.
In the case of `Cc1nc([C@](C)(O)C#Cc2ccc3c(CN4CC(F)(F)C4)nn(-c4ccnc(N)n4)c3c2)no1` [Example T1.1-65, (2R)-4-[1-(2-aminopyrimidin-4-yl)-3-[(3,3-difluoroazetidin-1-yl)methyl]indazol-6-yl]-2-(5-methyl-1,2,4-oxadiazol-3-yl)but-3-yn-2-ol], the Ki amounted to 7 nM.
The figure for `CN(C)C(=O)c1nn(-c2ccnc(N)n2)c2cc(C#CC3(O)CCn4cncc43)ccc12` (centres unmarked) [Example T1.1-117, 1-(2-aminopyrimidin-4-yl)-6-[2-(7-hydroxy-5,6-dihydropyrrolo[1,2-c]imidazol-7-yl)ethynyl]-N,N-dimethyl-indazole-3-carboxamide] is not below 5000 nM; for `Cc1nc2ccc(C#CC(C)(O)CO)cc2n1-c1ncnc(N)n1` (centres unmarked) [Example T1.1-100, 4-[3-(4-amino-1,3,5-triazin-2-yl)-2-methyl-benzimidazol-5-yl]-2-methyl-but-3-yne-1,2-diol] it is 130 nM; for `Cc1cc([C@](C)(O)C#Cc2ccc3c(C(=O)N4CCOCC4)nn(-c4ccnc(N)n4)c3c2)no1` [Example T1.1-14, [1-(2-aminopyrimidin-4-yl)-6-[(3R)-3-hydroxy-3-(5-methylisoxazol-3-yl)but-1-ynyl]indazol-3-yl]-morpholino-methanone] it is 0.8 nM.
Take `Cc1csc(C(C)(O)C#Cc2ccc3c(C)nn(-c4ccnc(N)n4)c3c2)n1` (centres unmarked) [Example T1-51, 4-(1-(2-aminopyrimidin-4-yl)-3-methyl-1H-indazol-6-yl)-2-(4-methylthiazol-2-yl)but-3-yn-2-ol]: the inhibitory constant (Ki) amounted to 575 nM.
Turning to `CC(O)(C#Cc1ccc2c(C(=O)N3CCOCC3)nn(-c3ccnc(N)n3)c2c1)c1ncccn1` (centres unmarked) [Example T1.1-54, [1-(2-aminopyrimidin-4-yl)-6-(3-hydroxy-3-pyrimidin-2-yl-but-1-ynyl)indazol-3-yl]-morpholino-methanone], the inhibitory constant (Ki) was 4 nM.
For the compound `Cc1nc([C@](C)(O)C#Cc2ccc3c(c2)n(-c2ccnc(N)n2)c(=O)n3CC2CC2)no1` [Example T1.1-81, 3-(2-aminopyrimidin-4-yl)-1-(cyclopropylmethyl)-5-[(3R)-3-hydroxy-3-(5-methyl-1,2,4-oxadiazol-3-yl)but-1-ynyl] benzimidazol-2-one], the Ki was 24 nM.
As for `COCc1cc(C(C)(O)C#Cc2ccc3c(C(=O)N4CCOCC4)nn(-c4ccnc(N)n4)c3c2)no1` (centres unmarked) [Example T1.1-84, [1-(2-aminopyrimidin-4-yl)-6-[3-hydroxy-3-[5-(methoxymethyl)isoxazol-3-yl]but-1-ynyl]indazol-3-yl]-morpholino-methanone], the Ki was 27 nM.
Regarding `CC(O)(C#Cc1ccc2nc(OCCO)n(-c3ccnc(N)n3)c2c1)c1ccc(Cl)cn1` (centres unmarked) [Example T1.1-133, 4-[3-(2-aminopyrimidin-4-yl)-2-(2-hydroxyethoxy)benzimidazol-5-yl]-2-(5-chloro-2-pyridyl)but-3-yn-2-ol], the Ki is 0.4 nM.
The figure for `CC(O)(C#Cc1ccc2nc(OCC(F)(F)F)n(-c3ccnc(N)n3)c2c1)c1ncccn1` (centres unmarked) [Example T1.1-46, 4-[3-(2-aminopyrimidin-4-yl)-2-(2,2,2-trifluoroethoxy)benzimidazol-5-yl]-2-pyrimidin-2-yl-but-3-yn-2-ol] is 3 nM; for `CN(C(=O)c1nn(-c2ccnc(N)n2)c2cc(C#CC(C)(O)c3ncccn3)ccc12)c1ccccn1` (centres unmarked) [Example T1.1-142, 1-(2-aminopyrimidin-4-yl)-6-(3-hydroxy-3-pyrimidin-2-yl-but-1-ynyl)-N-methyl-N-(2-pyridyl)indazole-3-carboxamide] it is 7 nM.
